Experimental data as given in patent US6589970B2, “6-(aryl-amido or aryl-amidomethyl)-naphthalen-2-yloxy-acidic derivatives as inhibitors of plasminogen activator inhibitor type-1 (PAI-1)” (Wyeth, priority 2001, dated 2003).

What was measured:
[1] = target: T1, recombinant human plasminogen activator inhibitor-1 (PAI-1) (Homo sapiens, UniProt P05121); assay: Primary Screen for the PAI-1 Inhibition; format: biochemical; conditions: for inhibition at 25 µM: 25 μM test compound, read-out: % Inhib. 25 μM; for inhibition at 100 µM: 100 μM test compound, read-out: % Inhib. 100 μM
T1 construct: purchased Molecular Innovations, Royal Oak, Mich
Procedure: Test compounds are dissolved in DMSO at a final concentration of 10 mM, then diluted 100× in physiologic buffer. The inhibitory assay is initiated by the addition of the test compound (1-100 μM final concentration, maximum DMSO concentration of 0.2%) in a pH 6.6 buffer containing 140 nM recombinant human plasminogen activator inhibitor-1 (PAI-1; Molecular Innovations, Royal Oak, Mich.). Following a 1 hour incubation at room temperature, 70 nM of recombinant human tissue plasminogen activator (tPA) is added, and the combination of the test compound, PAI-1 and tPA is incubated for an additional 30 minutes. Following the second incubation, Spectrozyme-tPA (American Diagnostica, Greenwich, Conn.), a chromogenic substrate for tPA, is added and absorbance read at 405 nm at 0 and 60 minutes. Relative PAI-1 inhibition is equal to the residual tPA activity in the presence of the test compound and PAI-1. Control treatments include the complete inhibition of tPA by PAI-1 at the molar ratio employed (2:1), and the absence of any effect of the test compound on tPA alone.

human PAI-1 = human PAI-1 (Homo sapiens, UniProt P05121); assay: Assay for Determining IC50 of Inhibition of PAI-1 (Antibody Assay); format: biochemical; conditions: active PAI-1 bound to tPA-coated plate
Procedure: This assay is based upon the non-SDS dissociable interaction between tPA and active PAI-1. Assay plates are initially coated with human tPA (10 μg/ml). The test compounds are dissolved in DMSO at 10 mM, then diluted with physiologic buffer (pH 7.5) to a final concentration of 1-50 μM. The test compounds are incubated with human PAI-1 (50 ng/ml) for 15 minutes at room temperature. The tPA-coated plate is washed with a solution of 0.05% Tween 20 and 0.1% BSA, then the plate is blocked with a solution of 3% BSA. An aliquot of the test compound/PAI-1 solution is then added to the tPA-coated plate, incubated at room temperature for 1 hour, and washed. Active PAI-1 bound to the plate is assessed by adding an aliquot of a 1:1000 dilution of the 33B8 monoclonal antibody against human PAI-1, and incubating the plate at room temperature for 1 hour (Molecular Innovations, Royal Oak, Mich. The plate is again washed, and a solution of goat anti-mouse IgG-alkaline phosphatase conjugate is added at a 1:50,000 dilution in goat serum. The plate is incubated 30 minutes at room temperature, washed, and a solution of alkaline phosphatase substrate is added. The plate is incubated 45 minutes at room temperature, and color development is determined at OD405nm. The quantitation of active PAI-1 bound to tPA at varying concentrations of the test compound is used to determine the IC50. Results are analyzed using a logarithmic best-fit equation. The assay sensitivity is 5 ng/ml of human PAI-1 as determined from a standard curve ranging from 0-100 ng/ml.

T1 sequence (P05121 24-402): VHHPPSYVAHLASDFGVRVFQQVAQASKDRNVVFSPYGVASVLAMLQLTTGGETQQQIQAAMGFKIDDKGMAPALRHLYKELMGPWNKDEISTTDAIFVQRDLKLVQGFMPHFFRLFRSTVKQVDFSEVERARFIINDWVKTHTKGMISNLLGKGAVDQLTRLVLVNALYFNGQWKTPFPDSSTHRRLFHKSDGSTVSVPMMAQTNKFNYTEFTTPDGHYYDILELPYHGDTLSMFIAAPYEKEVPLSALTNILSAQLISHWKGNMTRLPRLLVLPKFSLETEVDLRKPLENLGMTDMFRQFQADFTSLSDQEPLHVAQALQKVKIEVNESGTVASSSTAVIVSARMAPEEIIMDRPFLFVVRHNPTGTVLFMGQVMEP
human PAI-1, sequence (P05121 24-402): as above

Row | inhibition at 25 µM [1] [%] | inhibition at 100 µM [1] [%] | IC50 (human PAI-1) [µM] | melting point [°C] | SMILES
1 | 53 | 92 | 15.7 | – | CCCCc1oc2ccccc2c1C(=O)NCc1ccc2c(Br)c(OC(Cc3ccccc3)C(=O)O)ccc2c1 (stereo not shown) [Example 18, 2-(1-Bromo-6-{[(2-butyl-benzofuran-3-carbonyl)-amino]-methyl}-naphthalen-2-yloxy)-3-phenyl-propionic acid]
2 | 59 | 94 | 31.1 | 75 to 85 | CCCc1c(C(=O)N(C)Cc2ccc3c(Br)c(OCc4nnn[nH]4)ccc3c2)cnn1-c1ccccc1 [Example 33, 1-Phenyl-5-propyl-1H-pyrazole-4-carboxylic acid [5-bromo-6-(1H-tetrazol-5-ylmethoxy)-naphthalen-2-ylmethyl]-methyl-amide]
3 | 1 | 70 | 25.9 | – | CCc1oc2ccccc2c1C(=O)N(C)Cc1ccc2c(Br)c(OCc3nnn[nH]3)ccc2c1 [Example 32, 2-Ethyl-benzofuran-3-carboxylic acid [5-bromo-6-(1H-tetrazol-5-ylmethoxy)-naphthalen-2-ylmethyl]-methyl-amide]
4 | 55 | 92 | 16.8 | – | CC(C)(C)c1cc(C(=O)N(Cc2ccccc2)Cc2ccc3c(Br)c(OC(Cc4ccccc4)C(=O)O)ccc3c2)cc(C(C)(C)C)c1 (stereo not shown) [Example 69, 2-(6-{[Benzyl-(3,5-di-tert-butyl-benzoyl)-amino]-methyl}-1-bromo-naphthalen-2-yloxy)-3-phenyl-propionic acid]
5 | 59 | 66 | 13.5 | – | O=C(O)C(Cc1ccccc1)Oc1ccc2cc(CN(Cc3ccccc3)C(=O)c3ccc(Oc4cc(Cl)cc(Cl)c4)o3)ccc2c1Br (stereo not shown) [Example 67, 2-[6-({Benzyl-[5-(3,5-dichloro-phenoxy)-furan-2-carbonyl]-amino}-methyl)-1-bromo-naphthalen-2-yloxy]-3-phenyl-propionic acid]
6 | 40 | 60 | 13.6 | – | CN(Cc1ccc2c(Br)c(OC(Cc3ccccc3)C(=O)O)ccc2c1)C(=O)c1ccc(Oc2cc(Cl)cc(Cl)c2)o1 (stereo not shown) [Example 64, 2-[1-Bromo-6-({[5-(3,5-dichloro-phenoxy)-furan-2-carbonyl]-methyl-amino}-methyl)-naphthalen-2-yloxy]-3-phenyl-propionic acid]
7 | 36 | 54 | 5.08 | 235 to 238 | CCc1oc2ccccc2c1C(=O)NCc1ccc2c(Br)c(OCc3nnn[nH]3)ccc2c1 [Example 21, 2-Ethyl-benzofuran-3-carboxylic acid [5-bromo-6-(1H-tetrazol-5-yl methoxy)-naphthalen-2-ylmethyl]-amide]
8 | 52 | 96 | 20.6 | 227 to 228 | CN(Cc1ccc2c(Br)c(OCc3nnn[nH]3)ccc2c1)C(=O)c1cn(C)c2ccccc12 [Example 37, 1-Methyl-1H-indole-3-carboxylic acid [5-bromo-6-(1H-tetrazol-5-ylmethoxy)-naphthalen-2-ylmethyl]-methyl-amide]
9 | 44 | 81 | 20.8 | 204 to 206 | CCCCN(Cc1ccc2c(Br)c(OCc3nnn[nH]3)ccc2c1)C(=O)c1c(C)oc2ccccc12 [Example 52, 2-Methyl-benzofuran-3-carboxylic acid [5-bromo-6-(1H-tetrazol-5-ylmethoxy)-naphthalen-2-ylmethyl]-butyl-amide]
10 | 56 | 61 | 35.7 | – | CCc1oc2ccccc2c1C(=O)N(Cc1ccccc1)Cc1ccc2c(Br)c(OCc3nnn[nH]3)ccc2c1 [Example 50, 2-Ethyl-benzofuran-3-carboxylic acid benzyl-[5-bromo-6-(1H-tetrazol-5ylmethoxy)-naphthalen-2-ylmethyl)-amide]
11 | 26 | 58 | 15.8 | 242 to 244 | Cc1oc2ccccc2c1C(=O)NCc1ccc2c(Br)c(OCc3nnn[nH]3)ccc2c1 [Example 20, 2-Methyl-benzofuran-3-carboxylic acid [5-bromo-6-(1H-tetrazol-5-ylmethoxy)-naphthalen-2-ylmethyl]-amide]
12 | 38 | 91 | 44.9 | 138 to 142 | CCCCc1oc2ccccc2c1C(=O)NCc1ccc2c(-c3ccc(OC)cc3)c(OC(Cc3ccccc3)C(=O)[O-])ccc2c1.[Na+] (stereo not shown) [Example 30, Sodium; 2-[6-{[(2-Butyl-benzofuran-3-carbonyl)-amino]-methyl}-1-(4-methoxy-phenyl)-naphthalen-2-yloxy]-3-phenyl-propionate]
13 | 46 | 88 | 14.6 | – | CN(Cc1ccc2c(Br)c(OC(Cc3ccccc3)C(=O)O)ccc2c1)C(=O)c1cc(C(C)(C)C)cc(C(C)(C)C)c1 (stereo not shown) [Example 65, 2-(1-Bromo-6-{[(3,5-di-tert-butyl-benzoyl)-methyl-amino]-methyl}-naphthalen-2-yloxy)-3-phenyl-propionic acid]
14 | 54 | 84 | 20 | – | CCCCc1oc2ccccc2c1C(=O)N(Cc1ccccc1)Cc1ccc2c(Br)c(OC(Cc3ccccc3)C(=O)O)ccc2c1 (stereo not shown) [Example 68, 2-(6-{[Benzyl-(2-butyl-benzofuran-3-carbonyl)-amino]-methyl}-1-bromo-naphthalen-2-yloxy)-3-phenyl-propionic acid]
15 | 34 | 81 | 19.3 | 197 to 198 | CN(Cc1ccc2c(Br)c(OCc3nnn[nH]3)ccc2c1)C(=O)c1cn(Cc2ccccc2)c2ccccc12 [Example 34, 1-Benzyl-1H-indole-3-carboxylic acid [5-bromo-6-(1H-tetrazol-5-ylmethoxy)-naphthalen-2-ylmethyl]-methyl-amide]
16 | 54 | 72 | 6.92 | – | Cc1oc2ccccc2c1C(=O)N(Cc1ccccc1)Cc1ccc2c(Br)c(OCc3nnn[nH]3)ccc2c1 [Example 49, 2-Methyl-benzofuran-3-carboxylic acid benzyl-[5-bromo-6-(1H-tetrazol-5-ylmethoxy)-naphthalen-2-ylmethyl]-amide]
17 | 1 | 70 | 51 | – | O=C(O)COc1ccc2cc(CNC(=O)c3cnn(-c4ccc(Cl)cc4)c3C(F)(F)F)ccc2c1 [Example 14, [6-({[1-(4-Chloro-phenyl)-5-trifluoromethyl-1H-pyrazole-4-carbonyl]-amino}-methyl)-naphthalen-2-yloxy]-acetic acid]
18 | 58 | 88 | – | 87 to 90 | CN(Cc1ccc2c(Br)c(OC(Cc3ccccc3)C(=O)O)ccc2c1)C(=O)c1oc2ccccc2c1CCc1ccccc1 (stereo not shown) [Example 46, 2-(1-Bromo-6-{[methyl-(3-phenethyl-benzofuran-2-carbonyl)-amino]-methyl}-naphthalen-2-yloxy)-3-phenyl-propionic acid]
